The values below come from publication PMC10748408 (Frontiers in Oncology, 2023).

SMILES strings stand for the structures.

The test system of one experiment is tumor cells. Briefly: Cell cycle assay (PI, flow cytometry) of cells isolated from tumors. The following applies: 25 and 50 mg/kg bodyweight ART vs untreated tumor-bearing mice, p<0.05. The class given is in vivo, BALB/c mice. As to the method:
Cells (1 x 10^6) were isolated from tissues by collagenase-hyaluronidase digestion and fixed in ice-cold ethanol at -20°C. Samples were washed and resuspended in PBS containing 40 µg/mL RNase A for 1 hr. The cells were then stained with 30 µg/mL propidium iodide in the dark for 30 minutes and analyzed by flow cytometry using the BD Verse (BD Biosciences, USA). Data were analyzed using the BD FACSuite™ software ([35]).

The subject of the next experiment is MDA-MB-231 cells. The experiment in a line: Cell viability assay (MTT). In kind it is cell-based. To be noted: Homo sapiens, 24 hours. As to the method:
Human triple negative breast cancer cells MDA-MB-231 and murine mammary cancer cells 4T1 were obtained from National Centre for Cell Sciences, Pune, India. Cells were maintained in complete Dulbecco’s Modified Eagle Medium (DMEM) supplemented with 10% FBS and 1% penicillin/streptomycin, and incubated at 37°C in 5% CO2 - 95% humidified atmosphere. Cells in log phase of growth was used for all subsequent experiments ([21]). 1 x 10^5 viable cells were seeded in a 96-well plate. […] Following treatment, wells were washed to remove the media and 100 µl of PBS was added to each well. Finally, 10 µl of MTT solution (5 mg/mL in PBS) was added and incubated at 37°C for 3 hours. The purple crystals formed were dissolved in 150 µl of DMSO. Absorbance was measured at 570 nm in a multi-plate reader Varioskan™ Lux (Thermo Fisher Scientific, USA; [21]).

One may read the IC50 as the concentration at which inhibition is half-maximal. As to `C[C@@H]1CC[C@H]2[C@@H](C)C(=O)O[C@@H]3O[C@@]4(C)CC[C@@H]1[C@]32OO4` [ART, Artemisinin], the “percentage of G2/M cell count” value with tumor cells is reported as “significant increase”. In the experiment with MDA-MB-231 cells, this molecule came in with an IC50 of 5 µM.
